Measured values reported in publication PMC6688997 (Nature Communications, 2019).
Several values for one entry are separate records, joined by “and”; a condition that tells them apart may be missing. Equal values may be shown once. Read-outs that look alike come from different tables or passages of the source.

Assays:
[1] = tested on: parental Ba/F3 cells (with IL-3); experiment: CellTiter-Glo cell viability assay; assay type: cell-based, murine; conditions: for IC50: 72 h, medium containing IL-3, read-out: IC50
Description: All media were supplemented with 100 U/ml penicillin, and 100 µg/ml streptomycin. All cells were routinely tested and verified to be free of mycoplasma contamination.
To assess cell viability after 72-h drug treatment, 2000–5000 cells were plated in replicates of three to six in 96-well plates. Following the drug treatments, the cells were incubated with CellTiter-Glo assay reagent (Promega, Madison, WI, USA) for 10 min. […] GraphPad Prism version 7.0 (GraphPad Software, La Jolla, CA, USA) was used to graphically display the data. IC50 values were determined using a nonlinear regression model with a sigmoidal dose response in GraphPad.

[2] = target: T1, RSK1 (Homo sapiens, UniProt Q15418); experiment: Kinase assay, ATP Km; assay type: biochemical
T1 construct: purchased Carna Biosciences

[3] = target: T2, IKKα (Homo sapiens, UniProt O15111); experiment: Kinase assay, ATP Km; assay type: biochemical
T2 construct: purchased Carna Biosciences

[4] = tested on: Ba/F3-TPM3-NTRK1 cells (WT); experiment: CellTiter-Glo cell viability assay; assay type: cell-based, murine; conditions: 72 h, read-out: IC50
[5] = target: T3, JAK1 (Homo sapiens, UniProt P23458); experiment: Kinase assay, ATP Km; assay type: biochemical
T3 construct: purchased Carna Biosciences

[6] = tested on: EML4-ALK G1269A induced Ba/F3 cells; experiment: CellTiter-Glo cell viability assay; assay type: cell-based, murine; conditions: Mus musculus, BaF3, 72 h; read-out: IC50
[7] = target: T4, IRR (Homo sapiens, UniProt P14616); experiment: Kinase assay, ATP Km; assay type: biochemical
T4 construct: purchased Carna Biosciences

[8] = target: T5, RSK4 (Homo sapiens, UniProt Q9UK32); experiment: Kinase assay, ATP Km; assay type: biochemical
T5 construct: purchased Carna Biosciences

[9] = target: EPHA7 (Homo sapiens, UniProt Q15375); experiment: Kinase assay, ATP Km; assay type: biochemical
[10] = target: CK2α2/β (Homo sapiens, UniProt P19784); experiment: Kinase assay, ATP Km; assay type: biochemical
[11] = target: T6, TIE2 (Homo sapiens, UniProt Q02763); experiment: Kinase assay, ATP Km; assay type: biochemical
T6 construct: purchased Carna Biosciences

[12] = PK profile, plasma concentration by LC-MS/MS; assay type: in vivo, nude mice; conditions: single administration of 100 mg/kg
Description: PK profile of DS-6051b as a free base in nude mice The indicated dose of DS-6051b as a free base was administered to nude mice. Blood samples were collected at 2, 6 and 24 h post-dosing and centrifuged to separate the supernatant as plasma. […] Results are indicated as mean ± SD of the concentration of each group (N = 3).

[13] = target: GSK3β (Homo sapiens, UniProt P49841); experiment: Kinase assay, ATP Km; assay type: biochemical
[14] = tested on: EML4-ALK I1171T induced Ba/F3 cells; experiment: CellTiter-Glo cell viability assay; assay type: cell-based, murine; conditions: Mus musculus, BaF3, 72 h; read-out: IC50
[15] = target: T7, NEK4 (Homo sapiens, UniProt P51957); experiment: Kinase assay, ATP Km; assay type: biochemical
T7 construct: purchased Carna Biosciences

[16] = target: T8, PYK2 (Homo sapiens, UniProt Q14289); experiment: Kinase assay, ATP Km; assay type: biochemical
T8 construct: purchased Carna Biosciences

[17] = target: ROCK1 (Homo sapiens, UniProt Q13464); experiment: Kinase assay, 1 mM ATP; assay type: biochemical
Method in brief: (§1)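 Substrate and phosphorylated product were resolved by electrophoretic mobility shift off-chip, and inhibition was then fitted to a four-parameter logistic curve to give IC50 estimates.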

[18] = target: CDK3/CycE1 (Homo sapiens, UniProt Q00526); experiment: Kinase assay, 1 mM ATP; assay type: biochemical
Method in brief: as §1

[19] = target: T9, TNIK (Homo sapiens, UniProt Q9UKE5); experiment: Kinase assay, 1 mM ATP; assay type: biochemical
T9 construct: purchased Carna Biosciences
Method in brief: as §1

[20] = target: T10, EGFR(L861Q) (Homo sapiens, UniProt P00533, L861Q); experiment: Kinase assay, 1 mM ATP; assay type: biochemical
T10 construct: purchased Carna Biosciences
Method in brief: as §1

[21] = target: T11, MET (Homo sapiens, UniProt P08581); experiment: Kinase assay, 1 mM ATP; assay type: biochemical
T11 construct: purchased Carna Biosciences
Method in brief: as §1

[22] = target: T5, RSK4; experiment: Kinase assay, 1 mM ATP; assay type: biochemical
Method in brief: as §1

[23] = target: JNK3 (Homo sapiens, UniProt P53779); experiment: Kinase assay, 1 mM ATP; assay type: biochemical
Method in brief: as §1

[24] = target: BLK (Homo sapiens, UniProt P51451); experiment: Kinase assay, 1 mM ATP; assay type: biochemical
Method in brief: as §1

[25] = target: T12, RET(Y791F) (Homo sapiens, UniProt P07949, Y791F); experiment: Kinase assay, 1 mM ATP; assay type: biochemical
T12 construct: purchased Carna Biosciences
Method in brief: as §1

[26] = target: T13, PKD2 (Homo sapiens, UniProt Q9BZL6); experiment: Kinase assay, 1 mM ATP; assay type: biochemical
T13 construct: purchased Carna Biosciences
Method in brief: as §1

[27] = target: CaMK1α (Homo sapiens, UniProt Q14012); experiment: Kinase assay, 1 mM ATP; assay type: biochemical
Method in brief: as §1

[28] = target: PLK1 (Homo sapiens, UniProt P53350); experiment: Kinase assay, 1 mM ATP; assay type: biochemical
Method in brief: as §1

[29] = target: DAPK1 (Homo sapiens, UniProt P53355); experiment: Kinase assay, 1 mM ATP; assay type: biochemical
Method in brief: as §1

[30] = target: T14, FGFR1 (Homo sapiens, UniProt P11362); experiment: Kinase assay, 1 mM ATP; assay type: biochemical
T14 construct: purchased Carna Biosciences
Method in brief: as §1

[31] = target: T15, PDGFRα (Homo sapiens, UniProt P16234); experiment: Kinase assay, 1 mM ATP; assay type: biochemical
T15 construct: purchased Carna Biosciences
Method in brief: as §1

[32] = target: CDK2/CycA2 (Homo sapiens, UniProt P24941); experiment: Kinase assay, 1 mM ATP; assay type: biochemical
Method in brief: as §1

[33] = target: FGR (Homo sapiens, UniProt P09769); experiment: Kinase assay, 1 mM ATP; assay type: biochemical
Method in brief: as §1

[34] = target: T16, HGK (Homo sapiens, UniProt O95819); experiment: Kinase assay, 1 mM ATP; assay type: biochemical
T16 construct: purchased Carna Biosciences
Method in brief: as §1

[35] = target: T17, NEK1 (Homo sapiens, UniProt Q96PY6); experiment: Kinase assay, 1 mM ATP; assay type: biochemical
T17 construct: purchased Carna Biosciences
Method in brief: as §1

[36] = target: EPHB4 (Homo sapiens, UniProt P54760); experiment: Kinase assay, 1 mM ATP; assay type: biochemical
Method in brief: as §1

[37] = target: PIM1 (Homo sapiens, UniProt P11309); experiment: Kinase assay, 1 mM ATP; assay type: biochemical
Method in brief: as §1

[38] = target: T18, PLK3 (Homo sapiens, UniProt Q9H4B4); experiment: Kinase assay, 1 mM ATP; assay type: biochemical
T18 construct: purchased Carna Biosciences
Method in brief: as §1

[39] = target: BTK (Homo sapiens, UniProt Q06187); experiment: Kinase assay, 1 mM ATP; assay type: biochemical
Method in brief: as §1

T5 sequence (Q9UK32 whole entry): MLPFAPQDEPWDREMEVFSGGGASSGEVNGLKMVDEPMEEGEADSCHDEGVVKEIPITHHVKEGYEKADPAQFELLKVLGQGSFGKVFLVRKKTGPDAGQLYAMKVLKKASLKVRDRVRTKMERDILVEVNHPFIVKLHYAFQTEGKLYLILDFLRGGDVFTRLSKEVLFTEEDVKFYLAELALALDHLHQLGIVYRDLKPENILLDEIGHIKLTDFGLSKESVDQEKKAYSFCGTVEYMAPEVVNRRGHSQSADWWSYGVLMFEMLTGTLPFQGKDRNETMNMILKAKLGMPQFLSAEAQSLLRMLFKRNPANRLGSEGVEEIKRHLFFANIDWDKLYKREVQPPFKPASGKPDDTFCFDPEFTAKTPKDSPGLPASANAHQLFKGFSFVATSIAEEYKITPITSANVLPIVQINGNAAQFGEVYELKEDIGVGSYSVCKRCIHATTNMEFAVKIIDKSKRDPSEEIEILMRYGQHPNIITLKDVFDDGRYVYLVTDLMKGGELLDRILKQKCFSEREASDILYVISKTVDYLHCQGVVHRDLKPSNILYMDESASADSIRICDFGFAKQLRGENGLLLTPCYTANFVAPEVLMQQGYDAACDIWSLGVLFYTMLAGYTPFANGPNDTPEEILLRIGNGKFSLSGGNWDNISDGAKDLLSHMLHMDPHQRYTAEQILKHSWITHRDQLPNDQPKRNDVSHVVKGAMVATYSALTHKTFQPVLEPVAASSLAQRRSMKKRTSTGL
T17 sequence (Q96PY6 whole entry): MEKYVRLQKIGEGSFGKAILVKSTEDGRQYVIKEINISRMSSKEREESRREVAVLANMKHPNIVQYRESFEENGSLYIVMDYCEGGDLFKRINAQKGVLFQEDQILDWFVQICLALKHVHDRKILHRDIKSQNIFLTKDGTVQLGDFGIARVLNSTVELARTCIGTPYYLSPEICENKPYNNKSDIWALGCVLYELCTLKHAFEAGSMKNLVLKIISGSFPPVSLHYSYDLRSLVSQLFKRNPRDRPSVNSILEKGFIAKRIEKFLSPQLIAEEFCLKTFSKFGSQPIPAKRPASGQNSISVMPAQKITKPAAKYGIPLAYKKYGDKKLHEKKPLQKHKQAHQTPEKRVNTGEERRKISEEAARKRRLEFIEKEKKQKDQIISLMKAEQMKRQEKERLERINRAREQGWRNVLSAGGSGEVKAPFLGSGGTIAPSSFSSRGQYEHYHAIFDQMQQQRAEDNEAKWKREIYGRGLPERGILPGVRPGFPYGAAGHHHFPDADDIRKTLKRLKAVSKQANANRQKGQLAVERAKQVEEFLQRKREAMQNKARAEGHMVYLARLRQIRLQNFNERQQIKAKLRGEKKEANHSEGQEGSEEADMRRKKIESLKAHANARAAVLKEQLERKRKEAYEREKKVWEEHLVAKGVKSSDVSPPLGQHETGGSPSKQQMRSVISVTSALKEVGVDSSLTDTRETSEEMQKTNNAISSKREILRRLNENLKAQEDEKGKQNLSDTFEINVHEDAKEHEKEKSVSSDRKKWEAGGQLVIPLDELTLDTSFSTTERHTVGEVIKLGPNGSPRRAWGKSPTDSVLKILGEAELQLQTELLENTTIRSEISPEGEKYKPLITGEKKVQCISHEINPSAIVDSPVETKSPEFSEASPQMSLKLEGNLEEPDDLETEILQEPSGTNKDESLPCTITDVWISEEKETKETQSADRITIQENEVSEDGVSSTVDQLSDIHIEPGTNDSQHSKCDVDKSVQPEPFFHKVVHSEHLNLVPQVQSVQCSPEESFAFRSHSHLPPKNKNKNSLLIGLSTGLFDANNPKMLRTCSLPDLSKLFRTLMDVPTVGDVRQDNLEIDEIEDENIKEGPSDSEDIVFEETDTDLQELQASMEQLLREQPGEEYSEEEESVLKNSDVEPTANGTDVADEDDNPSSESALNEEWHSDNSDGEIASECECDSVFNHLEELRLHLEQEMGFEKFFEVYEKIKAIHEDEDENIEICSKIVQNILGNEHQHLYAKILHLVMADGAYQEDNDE
T13 sequence (Q9BZL6 whole entry): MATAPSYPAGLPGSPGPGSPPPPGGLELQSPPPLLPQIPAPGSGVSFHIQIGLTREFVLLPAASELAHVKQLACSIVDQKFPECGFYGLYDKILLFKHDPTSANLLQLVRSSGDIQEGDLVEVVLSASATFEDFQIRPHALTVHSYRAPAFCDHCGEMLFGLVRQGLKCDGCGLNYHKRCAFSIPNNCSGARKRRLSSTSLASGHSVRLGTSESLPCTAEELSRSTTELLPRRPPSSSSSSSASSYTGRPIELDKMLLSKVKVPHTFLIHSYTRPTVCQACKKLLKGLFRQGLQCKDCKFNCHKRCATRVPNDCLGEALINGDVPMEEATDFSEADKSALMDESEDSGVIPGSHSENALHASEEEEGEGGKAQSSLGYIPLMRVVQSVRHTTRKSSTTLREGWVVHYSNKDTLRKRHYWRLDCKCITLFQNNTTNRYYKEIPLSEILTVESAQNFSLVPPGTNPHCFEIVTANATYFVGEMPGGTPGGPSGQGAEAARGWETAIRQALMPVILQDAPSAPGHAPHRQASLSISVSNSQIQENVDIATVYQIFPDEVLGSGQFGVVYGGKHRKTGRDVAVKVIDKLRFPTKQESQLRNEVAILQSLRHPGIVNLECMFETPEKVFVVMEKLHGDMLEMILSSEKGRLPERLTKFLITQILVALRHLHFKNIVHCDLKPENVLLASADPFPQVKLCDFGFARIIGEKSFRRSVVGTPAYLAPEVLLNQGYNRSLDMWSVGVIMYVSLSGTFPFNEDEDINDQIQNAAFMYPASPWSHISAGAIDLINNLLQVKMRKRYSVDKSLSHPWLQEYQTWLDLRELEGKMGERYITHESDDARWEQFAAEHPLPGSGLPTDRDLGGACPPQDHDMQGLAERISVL
T7 sequence (P51957 whole entry): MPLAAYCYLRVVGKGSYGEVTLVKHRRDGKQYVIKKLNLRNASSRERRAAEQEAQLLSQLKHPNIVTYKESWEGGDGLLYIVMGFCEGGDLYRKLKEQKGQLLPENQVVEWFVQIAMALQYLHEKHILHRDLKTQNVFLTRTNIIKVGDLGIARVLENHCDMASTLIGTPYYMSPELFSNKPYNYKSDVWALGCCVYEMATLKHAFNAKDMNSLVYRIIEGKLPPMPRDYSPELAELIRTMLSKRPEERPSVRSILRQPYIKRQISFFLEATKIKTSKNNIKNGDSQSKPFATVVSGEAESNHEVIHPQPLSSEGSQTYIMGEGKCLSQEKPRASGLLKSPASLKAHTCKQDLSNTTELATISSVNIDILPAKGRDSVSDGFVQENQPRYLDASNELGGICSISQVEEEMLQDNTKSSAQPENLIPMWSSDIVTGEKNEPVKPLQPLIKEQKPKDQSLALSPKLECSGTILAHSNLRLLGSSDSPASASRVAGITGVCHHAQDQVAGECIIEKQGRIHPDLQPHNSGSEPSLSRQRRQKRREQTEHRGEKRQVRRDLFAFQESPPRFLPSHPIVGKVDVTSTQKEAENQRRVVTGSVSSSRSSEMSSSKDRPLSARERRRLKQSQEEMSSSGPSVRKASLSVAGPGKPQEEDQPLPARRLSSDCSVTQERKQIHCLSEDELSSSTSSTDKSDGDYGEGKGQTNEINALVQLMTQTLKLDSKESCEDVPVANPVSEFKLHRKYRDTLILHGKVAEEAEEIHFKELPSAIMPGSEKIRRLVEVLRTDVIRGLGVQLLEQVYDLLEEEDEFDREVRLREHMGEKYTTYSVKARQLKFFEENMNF
T14 sequence (P11362 22-822): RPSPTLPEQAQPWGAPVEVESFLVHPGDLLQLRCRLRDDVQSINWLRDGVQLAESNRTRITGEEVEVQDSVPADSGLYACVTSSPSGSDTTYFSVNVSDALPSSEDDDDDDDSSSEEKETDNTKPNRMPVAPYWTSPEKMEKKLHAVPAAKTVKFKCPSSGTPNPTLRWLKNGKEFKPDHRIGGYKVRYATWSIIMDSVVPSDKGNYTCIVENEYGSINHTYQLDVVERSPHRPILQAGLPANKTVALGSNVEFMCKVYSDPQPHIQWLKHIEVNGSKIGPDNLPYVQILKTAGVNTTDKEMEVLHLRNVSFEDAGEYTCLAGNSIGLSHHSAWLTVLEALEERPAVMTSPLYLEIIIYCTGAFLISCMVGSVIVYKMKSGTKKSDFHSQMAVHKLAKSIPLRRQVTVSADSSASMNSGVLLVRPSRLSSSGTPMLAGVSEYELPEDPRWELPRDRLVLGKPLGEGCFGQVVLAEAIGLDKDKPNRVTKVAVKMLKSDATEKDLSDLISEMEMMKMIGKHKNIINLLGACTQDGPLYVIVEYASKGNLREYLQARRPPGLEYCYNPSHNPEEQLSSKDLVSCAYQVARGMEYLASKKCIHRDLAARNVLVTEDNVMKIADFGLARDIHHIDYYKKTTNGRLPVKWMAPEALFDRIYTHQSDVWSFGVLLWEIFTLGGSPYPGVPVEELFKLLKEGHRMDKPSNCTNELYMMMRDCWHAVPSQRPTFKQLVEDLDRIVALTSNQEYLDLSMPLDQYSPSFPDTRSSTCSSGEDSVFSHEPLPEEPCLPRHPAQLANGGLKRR
GSK3β, sequence (P49841 whole entry): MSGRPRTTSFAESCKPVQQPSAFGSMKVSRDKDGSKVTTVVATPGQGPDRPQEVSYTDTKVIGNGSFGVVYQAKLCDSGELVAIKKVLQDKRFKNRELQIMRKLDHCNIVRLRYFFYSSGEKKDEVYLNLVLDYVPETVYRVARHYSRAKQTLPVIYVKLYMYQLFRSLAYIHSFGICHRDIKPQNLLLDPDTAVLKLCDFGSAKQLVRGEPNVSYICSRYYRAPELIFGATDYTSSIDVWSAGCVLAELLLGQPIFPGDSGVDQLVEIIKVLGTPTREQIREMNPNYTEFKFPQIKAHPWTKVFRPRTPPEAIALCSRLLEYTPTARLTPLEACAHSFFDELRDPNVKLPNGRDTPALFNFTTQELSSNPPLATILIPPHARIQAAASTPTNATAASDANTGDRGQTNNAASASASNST

With C[C@@H](N)COc1ccc(-c2cnc3ccc(N[C@H](C)c4cccc(F)c4)nn23)cc1.O=C(O)CCCCC(=O)O [DS-6051b] the IC50 [1] was > 1 µM, the IC50 ([1]; Mus musculus, BaF3, 72 h) was 1.41 µM and the GI50 ([1]; Mus musculus, BaF3, source data sheet) was 1.4 µM. For the same compound, the inhibition at 0.04 µM [2] was 5.6%, the inhibition at 0.04 µM [3] was -1.8% and the IC50 [4] was 0.00297 µM and 0.003 to 0.02 µM. For the same compound, the IC50 ([4]; Mus musculus) was 0.00188 µM, the inhibition at 0.04 µM [5] was 46% and the IC50 [6] was 0.314 µM. It also gave an inhibition at 0.04 µM [7] of 69.1%, an inhibition at 0.04 µM [8] of 12.3% and an inhibition at 0.04 µM [9] of 9.3%. For the same compound, the inhibition at 0.04 µM [10] was -0.6%, the inhibition at 0.04 µM [11] was 13.5% and the Peak plasma concentration [12] was “around 1500 nM”. It also gave an inhibition at 0.04 µM [13] of 2.9%, an IC50 [14] of 0.459 µM and an inhibition at 0.04 µM [15] of 2.8%. The inhibition at 0.04 µM [16] was 62.7%, the inhibition at 0.2 µM [17] was -4.5% and the inhibition at 0.2 µM [18] was -1.2%. For the same compound, the inhibition at 0.2 µM [19] was -3%, the inhibition at 0.2 µM [20] was -3.6% and the inhibition at 0.2 µM [21] was -6.2%. It also gave an inhibition at 0.2 µM [22] of -5.4%, an inhibition at 0.2 µM [23] of 0.655% and an inhibition at 0.2 µM [24] of 0.178%. It also gave an inhibition at 0.2 µM [25] of -4.3%, an inhibition at 0.2 µM [26] of -17.3% and an inhibition at 0.2 µM [27] of -8.6%. The inhibition at 0.2 µM [28] was -9.2%, the inhibition at 0.2 µM [29] was -0.6% and the inhibition at 0.2 µM [30] was 3.4%. For the same compound, the inhibition at 0.2 µM [31] was 5.7%, the inhibition at 0.2 µM [32] was 2.3% and the inhibition at 0.2 µM [33] was 6.3%. For the same compound, the inhibition at 0.2 µM [34] was -8%, the inhibition at 0.2 µM [35] was -5.2% and the inhibition at 0.2 µM [36] was -6.2%. For the same compound, the inhibition at 0.2 µM [37] was -3.6%, the inhibition at 0.2 µM [38] was -3.3% and the inhibition at 0.2 µM [39] was 17.9%.
